The test system of test [1] is Septoria tritici. Briefly: Glasshouse trial on wheat, curative (K4) application (Example 2). In kind it is in vivo. As to conditions: for % Efficacy: wheat, R12 isolates, G143A, 4 weeks after application. How it is done: (§1) The trials were conducted under glasshouse conditions. Wheat was planted and grown under standard conditions with adequate supply of water and nutrients. At BBCH 11, an application of the test compounds was made. Fungicides were applied curatively 4 days after inoculation (K4) with different rates. The Septoria isolates used for inoculation were classified "R12" according their cyp51 haplotype (less sensitive to triazoles due to V136A, 1381V, Y461S/H and S524T mutation in cyp51 gene) and resistant to strobilurins due to G143A mutation in cytochrome b gene.
(§2) Disease levels were assessed by evaluating the average percentage of diseased leaf area 4 weeks after application.
(§3) The disease levels were converted into efficacies. An efficacy of 0 means that the level of the treated plants corresponds to that of the untreated control plants; an efficacy of 100 means that the treated plants had no disease at all.

Test [2] concerns Septoria tritici. Nature of the test: Glasshouse trial on wheat, preventive (P1) or curative (K4) application (Example 1). As to conditions: Zymoseptoria tritici. In kind it is in vivo. How it is done:
as §1, with “applied preventively (1 day before inoculation, P1) or” for “applied”, “curatively (4” for “curatively 4”, “after inoculation, K4) and” for “after inoculation (K4)”, “V136A, I381V,” for “V136A, 1381V,”
as §2, §3

[3] abbreviates: Zymoseptoria tritici, 672 h, read-out: % Efficacy.

The values below come from patent EP3099166B1, “METHOD TO CONTROL ST[…] SEPTORIA TRITICI” (priority 2014, dated 2015).

Like-named read-outs stand apart in the source and are kept apart here.

On to `CO/C=C(/C(=O)OC)c1ccccc1COc1cccc(C(F)(F)F)n1` [Picoxystrobin, picoxystrobin], for which the “% Efficacy” value with Septoria tritici [1] (83 g a.i./ha, curative (K4, 4 days after inoculation)) turned out to be 0%; in the test with Septoria tritici [1] (250 g a.i./ha, curative (K4)), 7%.
Turning to `CCCC1COC(Cn2cncn2)(c2ccc(Cl)cc2Cl)O1` (stereo not drawn) [Propiconazole, propiconazole], the Emax at 33 g/ha in the test with Septoria tritici [1] (setting [3]) is 7%. Also, the Emax at 125 g/ha with Septoria tritici [1] (setting [3]) came to 20%. Moreover, the Percent disease control efficacy at 33 g/ha in the test on Septoria tritici [2] (672 h, read-out: % Efficacy, 33 g a.i./ha, curative (K4), R12 isolates, G143A, 4 weeks after application) amounted to 7%; with Septoria tritici [2] (672 h, read-out: % Efficacy, 33 g a.i./ha, preventative (P1), R12 isolates, G143A, 4 weeks after application), 10%. For the same molecule, the Percent disease control efficacy at 125 g/ha with Septoria tritici [2] (672 h, read-out: % Efficacy, 125 g a.i./ha, preventative (P1), R12 isolates, G143A, 4 weeks after application) came out at 40%.
With `OC(Cc1ccccc1Cl)(Cn1nc[nH]c1=S)C1(Cl)CC1` (stereo not drawn) [Prothioconazole, prothioconazole], the Emax at 67 g/ha in the test on Septoria tritici [1] (setting [3]) was 7%. The Percent disease control efficacy at 67 g/ha with Septoria tritici [2] (672 h, read-out: % Efficacy, 67 g a.i./ha, curative (K4), R12 isolates, G143A, 4 weeks after application) is 7%; in the test with Septoria tritici [2] (672 h, read-out: % Efficacy, 67 g a.i./ha, preventative (P1), R12 isolates, G143A, 4 weeks after application) it was 10%.
In the case of `COC(=O)N(OC)c1ccccc1COc1ccn(-c2ccc(Cl)cc2)n1` [Pyraclostrobin, pyraclostrobin], the Percent disease control efficacy at 250 g/ha in the test on Septoria tritici [2] (672 h, read-out: % Efficacy, 250 g a.i./ha, preventative (P1), R12 isolates, G143A, 4 weeks after application) stood at 51%. Moreover, in the test on Septoria tritici [2] (read-out: % Efficacy, 83 g a.i./ha, curative (K4, 4 days after inoculation), R12 isolates, G143A, assessed 4 weeks after application), the Percent disease control efficacy at 83 g/ha came out at 10%.
